Measured values taken from US20070021348A1, “Novel treatment” (SmithKline Beecham Corp., & SmithKline Beecham, p.l.c., priority 1999, published 2007).
Values belong to the molecule of their own block, whether it stands above or below them. Starred links: 1 amine or outer side, 2 acyl side, 3 side chain; linkers in the order of their positions; H or OH if unused. Non-standard residues stand in square brackets, D forms with d. Residues, ends and D or L forms follow the SMILES beside them. *: point of attachment. Hexanoyl(5S-NH,4S-OH,6-Ph) = O=C(CC[C@H](O)[C@H](Cc1ccccc1)N[*:1])[*:2]; X2 = C[C@H](C[C@H](O)[C@H](Cc1ccccc1)N[*:1])C(=O)[*:2]; X3 = Nc1ccc2c(c1)Oc1ccccc1C21OC(=O)c2cc(C(=O)*)ccc21; X1 = CC(C)C[C@H](N[*:1])[C@@H](O)CCC(=O)[*:2]

Legend:
[1] = biological target: T1, Asp2-Fc enzyme (Homo sapiens, UniProt P56817); experiment: Fluorescence Resonance Energy Transfer (FRET) cleavage assay for Asp2; assay type: biochemical; conditions: 0.5 uM fluorescent Swedish variant APP beta-site peptide substrate, 25 nM enzyme, pH 3.8
T1 construct: A cDNA fragment encoding Asp 2, amino acids 1 to 460; made in house; host or cells: CHO E1A (derived from DG-44), secreted, purified on Protein A
Method: Preparation of Asp 2—Fc Fusion Protein (Asp 2(1-460)-Fc)
A cDNA fragment encoding Asp 2, amino acids 1 to 460 (EP855444 but with 130 Glu->Val), was subcloned to create a fusion protein with human immunoglobulin, residues 99-330 of IgGI, and cloned into the mammalian expression vector pCDN (Aiyar et al). The plasmid was linearized by digestion with Not 1 (15 ug DNA, 37′C, overnight), sterially precipitated and resuspended into 50 ul 1 X TE buffer (10 mM Tris, 1 mM EDTA, pH 7.5). […]
A peptide (X) based on the sequence of the Swedish variant APP beta-site sequence has been doubly labelled for use in a FRET assay. […] This would allow cleavage of the intervening peptide sequence by Asp2 to be monitored by energy transfer between the two fluorescent groups.
The fluorescent peptide substrate (0.5 uM) was incubated with Asp2-Fc enzyme, prepared as described above, in a buffer containing 50 mM sodium acetate, 20 mM sodium chloride, 5% glycerol, 0.1% CHAPS (3-[(3-Cholamidopropyl) dimethylammonio]-1-propane-sulphonate), pH 3.8). The assays were started by addition of enzyme (25 nM final concentration) and cleavage monitored on a fluorescent platereader with 485 nm excitation, 538 nm emission. […]
This assay was used to determine IC50 and Ki values for compounds of interest. […] Asp 2 Fluorescence Polarisation Assay.

[2] = biological target: T1, Asp2-Fc enzyme; experiment: Asp 2 fluorescence polarisation competition assay against labelled ligand (III); assay type: binding
Method: Enzyme (at a fixed concentration of 25 nM), ligand (III) (at a fixed concentration of 2.5 nM) and test compound (10 uM down in twofold serial dilutions) were mixed in ×1 assay buffer (50 mM 50 mM sodium acetate, 20 mM sodium chloride, 5% glycerol, 0.1% CHAPS, pH 3.8) in a final assay volume of 10 ul and allowed to equilibrate for 3 hrs. The fluorescence polarisation was then read. The experiment was performed in duplicate.

[3] = biological target: T1, Asp2-Fc enzyme; experiment: Asp 2 fluorescence polarisation assay, Kd of labelled ligand; conditions: ligand 1-100 nM, enzyme from 100 nM down in twofold dilutions, pH 4.0, 15 min equilibration, anisotropy; read-out: Kd for the tight binding interaction
Method: A competition assay has also been designed to identify compounds acting at the Asp2 active site. The hydroxyethylene inhibitor, (I), has been modified by addition of 5-, 6-rhodamine green to the free N-terminal amine of the compound to create labelled ligand (III). [drawing 4] The resulting compound was tested experimentally as follows to determine the Kd with Asp2-Fc enzyme, prepared as above.
A three dimensional analysis varying enzyme and compound (III) was performed. Ligand concentration range was 1, 3, 10, 30 and 100 nM. Enzyme concentration range was from 100 nM down in serial twofold dilutions (11 dilutions+no enzyme control). Ligand of appropriate concentration was prepared in 5% DMSO. The enzyme solutions were prepared in 2 times (×2) assay buffer (where ×1=50 mM sodium acetate, 20 mM sodium chloride, 5% glycerol, 0.1% CHAPS, pH 4.0). 5 ul of the enzyme solution (of varying concentration) was mixed with 5 ul of the ligand (of varying concentration) in a low volume 384 microtitre plate. The samples were allowed to equilibrate for 15 min before the fluorescence polarisation was read on an LJL Acquest platereader.
The Anisotropy values were plotted and the Kd for the tight binding interaction obtained.

Ki [1]: 7.7 nM
Structure (SMILES): CC(C)[C@H](NC(=O)[C@@H](N)CCC(=O)O)C(=O)N[C@@H](CC(N)=O)C(=O)N[C@@H](Cc1ccccc1)[C@@H](O)CCC(=O)N[C@@H](C)C(=O)N[C@@H](CCC(=O)O)C(=O)N[C@@H](Cc1ccccc1)C(=O)O [(I)] (H-EVN[Hexanoyl(5S-NH,4S-OH,6-Ph)]AEF-OH)

Ki [1]: 7.3 nM
Structure (SMILES): CC(C)[C@H](NC(=O)[C@@H](N)CCC(=O)O)C(=O)N[C@@H](CC(N)=O)C(=O)N[C@@H](Cc1ccccc1)[C@@H](O)C[C@@H](C)C(=O)N[C@@H](C)C(=O)N[C@@H](CCC(=O)O)C(=O)N[C@@H](Cc1ccccc1)C(=O)O [(II)] (H-EVN[X2]AEF-OH)

Ki ([2]; 25 nM enzyme, 2.5 nM ligand (III), pH 3.8, 3 hrs equilibration, duplicate): 67.5 nM
displacement of the fluorescent ligand (III) ([2]; at the highest concentrations of test compound (10 uM down in twofold serial dilutions)): Complete displacement
Structure (SMILES): CC(C)C[C@H](NC(=O)[C@H](C)NC(=O)[C@@H](NC(=O)[C@@H](N)CCC(=O)O)C(C)C)[C@@H](O)CCC(=O)N[C@@H](C)C(=O)N[C@@H](CCC(=O)O)C(=O)N[C@@H](Cc1ccccc1)C(=O)O [Compound (IV)] (H-EVA[X1]AEF-OH)

Kd [3]: 1.22 nM
Structure (SMILES): CC(C)[C@H](NC(=O)[C@H](CCC(=O)O)NC(=O)c1ccc2c(c1)C(=O)OC21c2ccccc2Oc2cc(N)ccc21)C(=O)N[C@@H](CC(N)=O)C(=O)N[C@@H](Cc1ccccc1)[C@@H](O)CCC(=O)N[C@@H](C)C(=O)N[C@@H](CCC(=O)O)C(=O)N[C@@H](Cc1ccccc1)C(=O)O (stereo partly drawn) [(III)] (X3-EVN[Hexanoyl(5S-NH,4S-OH,6-Ph)]AEF-OH)
